{"source": "patent US20200024278A1", "about": "“COMPOSITION COMPRISING ANTIBIOTIC COMPOUND AND AN HETEROCYCLIC COMPOUND AND THEIR USE IN PREVENTING OR TREATING BACTERIAL INFECTIONS” (MUTABILIS, priority 2016, published 2020)", "assay_in_all_cases": "MIC, broth microdilution (CLSI), substance alone or ATB combined with compound at 4 or 8 μg/mL", "key": {"[1]": {"system": "SAU 29213", "assay_type": "cell-based, S. aureus", "conditions": "SAU 29213", "method_in_brief": "(§1)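 Potentiation format: antibiotic dilution series run with test compound held at 4 or 8 μg/mL, alongside compound-alone MICs. Broth microdilution per CLSI in ca-MHB, 16-20 h at 35° C.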"}, "[2]": {"system": "ECO UFR39", "assay_type": "cell-based, E. coli", "conditions": "ECO UFR39", "method_in_brief": "as §1"}, "[3]": {"system": "ECO 190317", "assay_type": "cell-based, E. coli", "conditions": "ECO 190317", "method_in_brief": "as §1"}, "[4]": {"system": "PAE UFR90", "assay_type": "cell-based, P. aeruginosa", "conditions": "PAE UFR90; for MIC: Pseudomonas aeruginosa", "method_in_brief": "as §1"}, "[5]": {"system": "PAE UFR48", "assay_type": "cell-based, P. aeruginosa", "conditions": "PAE UFR48; for MIC: Pseudomonas aeruginosa", "method_in_brief": "as §1"}, "[6]": {"system": "PAE 105250", "assay_type": "cell-based, P. aeruginosa", "conditions": "PAE 105250", "method_in_brief": "as §1"}, "[7]": {"conditions": "Escherichia coli, antibiotic alone, read-out: MIC ATB alone"}, "[8]": {"conditions": "antibiotic alone, read-out: MIC ATB alone"}}, "note": "Where two headings read alike, the source gives them in different places.", "data": [{"compound": "NCC[C@H](O)C(=O)N[C@@H]1C[C@H](N)[C@@H](O[C@H]2O[C@H](CN)[C@@H](O)[C@H](O)[C@H]2O)[C@H](O)[C@H]1O[C@H]1O[C@H](CO)[C@@H](O)[C@H](N)[C@H]1O", "note": "[AN, Amikacin, reference compound]", "values": [{"measurement": "MIC ATB combined with Example 13 @8 μg/ml", "setting": "[1]; with Example 13 at 8 μg/ml", "value": 4, "unit": "µg/mL"}, {"measurement": "MIC ATB combined with Example 14 @8 μg/ml", "setting": "[1]; with Example 14 at 8 μg/ml", "value": "<0.031", "unit": "µg/mL"}, {"measurement": "MIC ATB combined with Example 15 @4 μgml", "setting": "[1]; with Example 15 at 4 μg/ml", "value": "<0.031", "unit": "µg/mL"}, {"measurement": "MIC ATB combined with Example 16 @4 μg/ml", "setting": "[1]; with Example 16 at 4 μg/ml", "value": "<0.031", "unit": "µg/mL"}, {"measurement": "MIC", "setting": "[1]; Staphylococcus aureus, antibiotic alone, read-out: MIC ATB alone", "value": 2, "unit": "µg/mL"}, {"measurement": "MIC ATB combined with Example 1 @8 μg/ml", "setting": "[2]; with Example 1 @8 μg/ml", "value": "<=0.031 μg/mL"}, {"measurement": "MIC ATB combined with Example 1 @8 μg/ml", "setting": "[2]; with Example 1 at 8 μg/ml", "value": "<=0.031 μg/mL"}, {"measurement": "MIC ATB combined with Example 7 @8 μgml", "setting": "[2]; with Example 7 at 8 μg/ml", "value": "<0.031", "unit": "µg/mL"}, {"measurement": "MIC ATB combined with Example 9 @4 μg/ml", "setting": "[2]; with Example 9 @4 μg/ml", "value": "<0.031", "unit": "µg/mL"}, {"measurement": "MIC ATB combined with Example 9 @4 μg/ml", "setting": "[2]; with Example 9 at 4 μg/ml", "value": "<0.031", "unit": "µg/mL"}, {"measurement": "MIC ATB combined with Example 11 @8 μg/ml", "setting": "[2]; with Example 11 at 8 μg/ml", "value": "<0.031", "unit": "µg/mL"}, {"measurement": "MIC ATB combined with Example 12 @8 μg/ml", "setting": "[2]; with Example 12 at 8 μg/ml", "value": "<0.031", "unit": "µg/mL"}, {"measurement": "MIC ATB combined with Example 13 @8 μg/ml", "setting": "[2]; with Example 13 at 8 μg/ml", "value": 0.063, "unit": "µg/mL"}, {"measurement": "MIC ATB combined with Example 14 @8 μg/ml", "setting": "[2]; with Example 14 at 8 μg/ml", "value": "<0.031", "unit": "µg/mL"}, {"measurement": "MIC ATB combined with Example 15 @4 μgml", "setting": "[2]; with Example 15 at 4 μg/ml", "value": "<0.031", "unit": "µg/mL"}, {"measurement": "MIC ATB combined with Example 16 @4 μg/ml", "setting": "[2]; with Example 16 at 4 μg/ml", "value": "<0.031", "unit": "µg/mL"}, {"measurement": "MIC", "setting": "[2]; [7]", "value": "> 32", "unit": "µg/mL"}, {"measurement": "MIC ATB combined with Example 1 @8 μg/ml", "setting": "[3]; with Example 1 @8 μg/ml", "value": "<0.031", "unit": "µg/mL"}, {"measurement": "MIC ATB combined with Example 1 @8 μg/ml", "setting": "[3]; with Example 1 at 8 μg/ml", "value": "<0.031", "unit": "µg/mL"}, {"measurement": "MIC ATB combined with Example 7 @8 μgml", "setting": "[3]; with Example 7 at 8 μg/ml", "value": "<0.031", "unit": "µg/mL"}, {"measurement": "MIC ATB combined with Example 9 @4 μg/ml", "setting": "[3]; with Example 9 @4 μg/ml", "value": "<0.031", "unit": "µg/mL"}, {"measurement": "MIC ATB combined with Example 9 @4 μg/ml", "setting": "[3]; with Example 9 at 4 μg/ml", "value": "<0.031", "unit": "µg/mL"}, {"measurement": "MIC ATB combined with Example 11 @8 μg/ml", "setting": "[3]; with Example 11 at 8 μg/ml", "value": "<0.031", "unit": "µg/mL"}, {"measurement": "MIC ATB combined with Example 12 @8 μg/ml", "setting": "[3]; with Example 12 at 8 μg/ml", "value": "<0.031", "unit": "µg/mL"}, {"measurement": "MIC ATB combined with Example 13 @8 μg/ml", "setting": "[3]; with Example 13 at 8 μg/ml", "value": "<0.031", "unit": "µg/mL"}, {"measurement": "MIC ATB combined with Example 14 @8 μg/ml", "setting": "[3]; with Example 14 at 8 μg/ml", "value": "<0.031", "unit": "µg/mL"}, {"measurement": "MIC ATB combined with Example 15 @4 μgml", "setting": "[3]; with Example 15 at 4 μg/ml", "value": "<0.031", "unit": "µg/mL"}, {"measurement": "MIC ATB combined with Example 16 @4 μg/ml", "setting": "[3]; with Example 16 at 4 μg/ml", "value": "<0.031", "unit": "µg/mL"}, {"measurement": "MIC", "setting": "[3]; [7]", "value": 8, "unit": "µg/mL"}, {"measurement": "MIC ATB combined with Example 1 @8 μg/ml", "setting": "[4]; with Example 1 @8 μg/ml", "value": "<0.031", "unit": "µg/mL"}, {"measurement": "MIC ATB combined with Example 1 @8 μg/ml", "setting": "[4]; with Example 1 at 8 μg/ml", "value": "<0.031", "unit": "µg/mL"}, {"measurement": "MIC ATB combined with Example 7 @8 μgml", "setting": "[4]; with Example 7 at 8 μg/ml", "value": 2, "unit": "µg/mL"}, {"measurement": "MIC ATB combined with Example 9 @4 μg/ml", "setting": "[4]; with Example 9 @4 μg/ml", "value": 2, "unit": "µg/mL"}, {"measurement": "MIC ATB combined with Example 9 @4 μg/ml", "setting": "[4]; with Example 9 at 4 μg/ml", "value": 2, "unit": "µg/mL"}, {"measurement": "MIC ATB combined with Example 11 @8 μg/ml", "setting": "[4]; with Example 11 at 8 μg/ml", "value": 2, "unit": "µg/mL"}, {"measurement": "MIC ATB combined with Example 12 @8 μg/ml", "setting": "[4]; with Example 12 at 8 μg/ml", "value": 2, "unit": "µg/mL"}, {"measurement": "MIC ATB combined with Example 13 @8 μg/ml", "setting": "[4]; with Example 13 at 8 μg/ml", "value": 2, "unit": "µg/mL"}, {"measurement": "MIC ATB combined with Example 14 @8 μg/ml", "setting": "[4]; with Example 14 at 8 μg/ml", "value": 2, "unit": "µg/mL"}, {"measurement": "MIC ATB combined with Example 15 @4 μgml", "setting": "[4]; with Example 15 at 4 μg/ml", "value": 2, "unit": "µg/mL"}, {"measurement": "MIC ATB combined with Example 16 @4 μg/ml", "setting": "[4]; with Example 16 at 4 μg/ml", "value": 2, "unit": "µg/mL"}, {"measurement": "MIC", "setting": "[4]; [8]", "value": 2, "unit": "µg/mL"}, {"measurement": "MIC", "setting": "[4]; substance alone, read-out: MIC", "value": 2, "unit": "µg/mL"}, {"measurement": "MIC ATB combined with Example 1 @8 μg/ml", "setting": "[5]; with Example 1 @8 μg/ml", "value": "<0.031", "unit": "µg/mL"}, {"measurement": "MIC ATB combined with Example 1 @8 μg/ml", "setting": "[5]; with Example 1 at 8 μg/ml", "value": "<0.031", "unit": "µg/mL"}, {"measurement": "MIC ATB combined with Example 7 @8 μgml", "setting": "[5]; with Example 7 at 8 μg/ml", "value": 32, "unit": "µg/mL"}, {"measurement": "MIC ATB combined with Example 9 @4 μg/ml", "setting": "[5]; with Example 9 @4 μg/ml", "value": 32, "unit": "µg/mL"}, {"measurement": "MIC ATB combined with Example 9 @4 μg/ml", "setting": "[5]; with Example 9 at 4 μg/ml", "value": 32, "unit": "µg/mL"}, {"measurement": "MIC ATB combined with Example 11 @8 μg/ml", "setting": "[5]; with Example 11 at 8 μg/ml", "value": ">32", "unit": "µg/mL"}, {"measurement": "MIC ATB combined with Example 12 @8 μg/ml", "setting": "[5]; with Example 12 at 8 μg/ml", "value": 32, "unit": "µg/mL"}, {"measurement": "MIC ATB combined with Example 13 @8 μg/ml", "setting": "[5]; with Example 13 at 8 μg/ml", "value": 32, "unit": "µg/mL"}, {"measurement": "MIC ATB combined with Example 14 @8 μg/ml", "setting": "[5]; with Example 14 at 8 μg/ml", "value": 32, "unit": "µg/mL"}, {"measurement": "MIC ATB combined with Example 15 @4 μgml", "setting": "[5]; with Example 15 at 4 μg/ml", "value": ">32", "unit": "µg/mL"}, {"measurement": "MIC ATB combined with Example 16 @4 μg/ml", "setting": "[5]; with Example 16 at 4 μg/ml", "value": 32, "unit": "µg/mL"}, {"measurement": "MIC", "setting": "[5]; [8]", "value": 32, "unit": "µg/mL"}, {"measurement": "MIC", "setting": "[5]; substance alone, read-out: MIC", "value": 32, "unit": "µg/mL"}, {"measurement": "MIC ATB combined with Example 1 @8 μg/ml", "setting": "[6]; with Example 1 @8 μg/ml", "value": "<0.031", "unit": "µg/mL"}, {"measurement": "MIC ATB combined with Example 1 @8 μg/ml", "setting": "[6]; with Example 1 at 8 μg/ml", "value": "<0.031", "unit": "µg/mL"}, {"measurement": "MIC ATB combined with Example 7 @8 μgml", "setting": "[6]; with Example 7 at 8 μg/ml", "value": 2, "unit": "µg/mL"}, {"measurement": "MIC ATB combined with Example 9 @4 μg/ml", "setting": "[6]; with Example 9 @4 μg/ml", "value": 2, "unit": "µg/mL"}, {"measurement": "MIC ATB combined with Example 9 @4 μg/ml", "setting": "[6]; with Example 9 at 4 μg/ml", "value": 2, "unit": "µg/mL"}, {"measurement": "MIC ATB combined with Example 11 @8 μg/ml", "setting": "[6]; with Example 11 at 8 μg/ml", "value": 2, "unit": "µg/mL"}, {"measurement": "MIC ATB combined with Example 12 @8 μg/ml", "setting": "[6]; with Example 12 at 8 μg/ml", "value": 2, "unit": "µg/mL"}, {"measurement": "MIC ATB combined with Example 13 @8 μg/ml", "setting": "[6]; with Example 13 at 8 μg/ml", "value": 2, "unit": "µg/mL"}, {"measurement": "MIC ATB combined with Example 14 @8 μg/ml", "setting": "[6]; with Example 14 at 8 μg/ml", "value": 1, "unit": "µg/mL"}, {"measurement": "MIC ATB combined with Example 15 @4 μgml", "setting": "[6]; with Example 15 at 4 μg/ml", "value": 2, "unit": "µg/mL"}, {"measurement": "MIC ATB combined with Example 16 @4 μg/ml", "setting": "[6]; with Example 16 at 4 μg/ml", "value": 1, "unit": "µg/mL"}, {"measurement": "MIC", "setting": "[6]; Pseudomonas aeruginosa, antibiotic alone, read-out: MIC ATB alone", "value": 2, "unit": "µg/mL"}]}]}
